Data published in ChEMBL document CHEMBL1201862, “PubChem BioAssay data set” (2004).
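Compound exposure: 48 hours, 5 concentrations, 96-well plates. Here, GI50 denotes the concentration required for 50% inhibition of growth.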 Activity calls are given as the source filed them. No stated cut-off is given here; in the data, active = GI50 up to about 1.1 µM and inactive = higher. Where a SMILES comes first, the peptide text is derived from it. [ ]: non-standard residue; d: D form. The star is where a group is joined. Chg = N[CH](C(=O)O)C1CCCCC1; Cbz = O=C(OCc1ccccc1)*; OBn = c1ccc(CO*)cc1

Columns and labels:
Test in all cases: inhibition of tumour cell growth, NCI panel, 48 h
HCT-15 = tested on: HCT-15
SNB-75 = tested on: SNB-75
SF-268 = tested on: SF-268
RPMI-8226 = tested on: RPMI-8226
NCI-H460 = tested on: NCI-H460
NCI-H226 = tested on: NCI-H226
M19-MEL = tested on: M19-MEL
786-0 = tested on: 786-0
SF-539 = tested on: SF-539
HCC 2998 = tested on: HCC 2998
SNB-19 = tested on: SNB-19
K562 = tested on: K562
UACC-62 = tested on: UACC-62
HOP-92 = tested on: HOP-92
SK-OV-3 = tested on: SK-OV-3
PC-3 = tested on: PC-3
Hs-578T = tested on: Hs-578T
MCF7 = tested on: MCF7
OVCAR-5 = tested on: OVCAR-5
MDA-N = tested on: MDA-N

| SMILES | GI50 (HCT-15) [µM] | GI50 (SNB-75) | GI50 (SF-268) | GI50 (RPMI-8226) | GI50 (NCI-H460) | GI50 (NCI-H226) | GI50 (M19-MEL) | GI50 (786-0) | GI50 (SF-539) | GI50 (HCC 2998) | GI50 (SNB-19) | GI50 (K562) | GI50 (UACC-62) | GI50 (HOP-92) | GI50 (SK-OV-3) | GI50 (PC-3) | GI50 (Hs-578T) | GI50 (MCF7) | GI50 (OVCAR-5) | GI50 (MDA-N) |
| --- | --- | --- | --- | --- | --- | --- | --- | --- | --- | --- | --- | --- | --- | --- | --- | --- | --- | --- | --- | --- |
| COc1ccc(S(=O)(=O)NNS(C)(=O)=O)cc1OC | > 100 | > 100 µM (inactive) | 79.4 µM (inactive) | > 100 µM (inactive) | > 100 µM (inactive) | > 100 µM (inactive) | > 100 µM (inactive) | > 100 µM (inactive) | > 100 µM (inactive) | > 100 µM (inactive) | > 100 µM (inactive) | > 100 µM (inactive) | > 100 µM (inactive) | – | – | – | – | – | – | – |
| CCOC(=O)C1=C(C)N(Cc2ccccc2)C(=O)C1CC#N (stereo not given) | > 100 | 55.2 µM (inactive) | – | 99.8 µM (inactive) | > 100 µM (inactive) | – | > 100 µM (inactive) | > 100 µM (inactive) | > 100 µM (inactive) | > 100 µM (inactive) | > 100 µM (inactive) | 70.3 µM (inactive) | 80 µM (inactive) | 20.7 µM (inactive) | > 100 µM (inactive) | – | – | – | – | – |
| OC1=CN=COc2ccccc21 | > 100 | 32.3 µM (inactive) | > 100 µM (inactive) | > 100 µM (inactive) | > 100 µM (inactive) | – | > 100 µM (inactive) | > 100 µM (inactive) | > 100 µM (inactive) | > 100 µM (inactive) | > 100 µM (inactive) | > 100 µM (inactive) | > 100 µM (inactive) | > 100 µM (inactive) | 50.6 µM (inactive) | – | – | – | – | – |
| C/C(=C\c1ccccc1)C(=O)c1c(C)cc(C)cc1C | > 100 | > 100 µM (inactive) | > 100 µM (inactive) | > 100 µM (inactive) | > 100 µM (inactive) | > 100 µM (inactive) | > 100 µM (inactive) | > 100 µM (inactive) | > 100 µM (inactive) | – | > 100 µM (inactive) | > 100 µM (inactive) | > 100 µM (inactive) | > 100 µM (inactive) | > 100 µM (inactive) | – | – | – | – | – |
| CCn1c(CCl)nc2c1C(=O)c1ccccc1C2=O | 1.66 | 1.58 µM (inactive) | 2.61 µM (inactive) | 2.12 µM (inactive) | 1.98 µM (inactive) | 0.225 µM (active) | – | 3.04 µM (inactive) | 2.23 µM (inactive) | 1.56 µM (inactive) | 1.87 µM (inactive) | 2.36 µM (inactive) | 1.28 µM (inactive) | 2.14 µM (inactive) | 0.515 µM (active) | 1.91 µM (inactive) | 2.29 µM (inactive) | 1.87 µM (inactive) | 1.84 µM (inactive) | 2.17 µM (inactive) |
| CC(=O)C1CC2(c3ccccc3)C(=O)c3ccccc3N2O1 (stereo not given) | > 100 | > 100 µM (inactive) | > 100 µM (inactive) | > 100 µM (inactive) | – | > 100 µM (inactive) | > 100 µM (inactive) | > 100 µM (inactive) | > 100 µM (inactive) | > 100 µM (inactive) | > 100 µM (inactive) | > 100 µM (inactive) | > 100 µM (inactive) | > 100 µM (inactive) | > 100 µM (inactive) | – | – | – | – | – |
| Nc1ccc(C(=O)N/C(=C\c2ccc3c(c2)OCO3)c2nc3c(O)nc(S)nc3[nH]2)cc1 | > 100 | – | > 100 µM (inactive) | – | – | – | > 100 µM (inactive) | > 100 µM (inactive) | > 100 µM (inactive) | > 100 µM (inactive) | > 100 µM (inactive) | > 100 µM (inactive) | > 100 µM (inactive) | 75.5 µM (inactive) | > 100 µM (inactive) | – | – | – | > 100 µM (inactive) | – |
| COCC(C)(C)/N=C/N1Cc2cc3ccccc3nc2C1 | > 100 | > 100 µM (inactive) | > 100 µM (inactive) | > 100 µM (inactive) | > 100 µM (inactive) | > 100 µM (inactive) | > 100 µM (inactive) | > 100 µM (inactive) | > 100 µM (inactive) | – | > 100 µM (inactive) | > 100 µM (inactive) | > 100 µM (inactive) | > 100 µM (inactive) | > 100 µM (inactive) | – | – | – | – | – |
| CC(=O)N(C(C)=O)c1c(N)n(C)c(=O)[nH]c1=O | > 100 | – | > 100 µM (inactive) | > 100 µM (inactive) | > 100 µM (inactive) | > 100 µM (inactive) | > 100 µM (inactive) | > 100 µM (inactive) | > 100 µM (inactive) | > 100 µM (inactive) | > 100 µM (inactive) | > 100 µM (inactive) | > 100 µM (inactive) | > 100 µM (inactive) | – | – | – | – | > 100 µM (inactive) | – |
| COC1=C(C(=O)OC(C)(C)C)[C@]2(C)C(C(=O)OC(C)(C)C)C(OC)=C(C(=O)OC(C)(C)C)[C@]2(C)C1C(=O)OC(C)(C)C (stereo not given in full) | 53 | > 100 µM (inactive) | > 100 µM (inactive) | 31.3 µM (inactive) | 78.2 µM (inactive) | > 100 µM (inactive) | > 100 µM (inactive) | > 100 µM (inactive) | > 100 µM (inactive) | > 100 µM (inactive) | > 100 µM (inactive) | 37.5 µM (inactive) | > 100 µM (inactive) | 32.9 µM (inactive) | > 100 µM (inactive) | – | – | – | > 100 µM (inactive) | – |
| CN(C)c1ccc(/C=C(/NC(=O)c2ccccc2)c2nc3cc(Cl)ccc3[nH]2)cc1 | 16.6 | 17.9 µM (inactive) | > 100 µM (inactive) | 19.1 µM (inactive) | 33.6 µM (inactive) | 30.8 µM (inactive) | 27.5 µM (inactive) | 27.8 µM (inactive) | 55.8 µM (inactive) | 18.5 µM (inactive) | 45.1 µM (inactive) | 19 µM (inactive) | 36 µM (inactive) | > 100 µM (inactive) | 52.6 µM (inactive) | – | – | – | 26 µM (inactive) | – |
| CCOC(=O)C(C)(C)Oc1ccc2c(-c3ccc(Cl)cc3)cc(=O)oc2c1 | > 100 | 19.3 µM (inactive) | > 100 µM (inactive) | > 100 µM (inactive) | > 100 µM (inactive) | > 100 µM (inactive) | > 100 µM (inactive) | > 100 µM (inactive) | > 100 µM (inactive) | > 100 µM (inactive) | > 100 µM (inactive) | > 100 µM (inactive) | > 100 µM (inactive) | – | – | – | – | – | – | – |
| Nc1ccc(Nc2nc(F)nc(-c3c4ccccc4c4n3CCS4)n2)cc1 | 10.1 | 14.9 µM (inactive) | 15.7 µM (inactive) | – | – | 11.6 µM (inactive) | 16.5 µM (inactive) | 15.7 µM (inactive) | 13.4 µM (inactive) | 22 µM (inactive) | 15.4 µM (inactive) | > 10 µM (inactive) | – | 6.18 µM (inactive) | 15.3 µM (inactive) | – | – | – | 17.6 µM (inactive) | – |
| Cc1cc(Cl)ccc1NC1=NC(=O)C(CC(=O)Nc2ccc([N+](=O)[O-])cc2[N+](=O)[O-])S1 (stereo not given) | 29.5 | 14.5 µM (inactive) | 38 µM (inactive) | 17.9 µM (inactive) | 29.1 µM (inactive) | – | 25.9 µM (inactive) | 34.8 µM (inactive) | 24.3 µM (inactive) | 39.6 µM (inactive) | 26.9 µM (inactive) | 27.6 µM (inactive) | 23.8 µM (inactive) | – | 25.2 µM (inactive) | – | – | – | 24.2 µM (inactive) | – |
| CCC(C)CC(C)CC(C)/C=C(\C)C1=C(C)CC(C)(O)O1 (stereo not given) | > 100 | > 100 µM (inactive) | – | 24.4 µM (inactive) | 65.6 µM (inactive) | 76.9 µM (inactive) | > 100 µM (inactive) | 9.53 µM (inactive) | > 100 µM (inactive) | > 100 µM (inactive) | – | 46.7 µM (inactive) | > 100 µM (inactive) | 18.3 µM (inactive) | > 100 µM (inactive) | – | – | – | – | – |
| C[C@@H]1C2=CC[C@@]3(C)C(CCC3[C@H](C)[C@H]3C[C@@]4(C)O[C@@](c5cccnc5)(O3)OC4(C)C)[C@@H]2C2OC2[C@@]12CCC(=O)O2 (stereo not given in full) | 32.1 | 34 µM (inactive) | > 100 µM (inactive) | 29.2 µM (inactive) | 32 µM (inactive) | – | 41.2 µM (inactive) | 38.2 µM (inactive) | 52.2 µM (inactive) | 37 µM (inactive) | 49.1 µM (inactive) | 27.5 µM (inactive) | 30.3 µM (inactive) | 26.8 µM (inactive) | 39.9 µM (inactive) | – | – | – | 57.4 µM (inactive) | – |
| COC(=O)C(NC(=O)C(CC(=O)OCc1ccccc1)NC(=O)OCc1ccccc1)C1CCCCC1 (stereo not given) (Cbz-Asp(OBn)-[Chg]-OMe; configuration not given here) | > 100 | 62.8 µM (inactive) | > 100 µM (inactive) | 48.2 µM (inactive) | > 100 µM (inactive) | > 100 µM (inactive) | – | > 100 µM (inactive) | 59.7 µM (inactive) | > 100 µM (inactive) | > 100 µM (inactive) | > 100 µM (inactive) | > 100 µM (inactive) | 21.7 µM (inactive) | > 100 µM (inactive) | > 100 µM (inactive) | < 0.01 µM (active) | > 100 µM (inactive) | > 100 µM (inactive) | > 100 µM (inactive) |
| NC(=O)c1ccc(N)nc1 [6-AMINONICOTINAMIDE] | 17.5 | 15.6 µM (inactive) | 19.1 µM (inactive) | 9.75 µM (inactive) | 5.16 µM (inactive) | 35.7 µM (inactive) | – | 3.54 µM (inactive) | 8.43 µM (inactive) | 31.5 µM (inactive) | 14.7 µM (inactive) | 16.7 µM (inactive) | 16.1 µM (inactive) | 213 µM (inactive) | > 400 µM (inactive) | 29.7 µM (inactive) | 6.17 µM (inactive) | 0.389 µM (active) | > 322 µM (inactive) | 14.3 µM (inactive) |
